Values quoted from earlier work as cited in article PMC12308805, “Ultrahigh-Throughput Virtual Screening Strategies against PPI Targets: A Case Study of STAT Inhibitors” (Journal of Chemical Information and Modeling, 2025).
Square brackets hold non-standard residues; d marks the D form. Peptide text beside a SMILES is read from it. * marks the point of attachment. pY = N[C@@H](Cc1ccc(OP(=O)(O)O)cc1)C(=O)O; Propionyl = CCC(=O)*

Tested on: STAT3
Conditions: cited from earlier work
For `CCC(=O)N[C@@H](Cc1ccc(OP(=O)(O)O)cc1)C(=O)N[C@@H](CC(C)C)C(=O)N1CCC[C@H]1C(=O)N[C@@H](CCC(N)=O)C(=O)N[C@H](C(N)=O)[C@@H](C)O` [CHEMBL197580] (Propionyl-[pY]LPQT-NH2), the “Type (known STAT3 active)” value is given as “Active”. For `CC(C)C[C@H](NC(=O)/C=C/c1ccc(OP(=O)(O)O)cc1)C(=O)N1CCC[C@H]1C(=O)N[C@@H](CC(N)=O)C(=O)NCc1ccccc1` [CHEMBL573901], the “Type (known STAT3 active)” value is listed as “Active”.

Same assay, conditions: sheet 6QHD_actives_decoys, retrospective screening set for STAT3 SH2 domain (PDB 6QHD); decoys are presumed inactives, not tested; ref DUD-E; cited from earlier work
In the case of `CC(=O)c1cccc(S(=O)(=O)NCCC(=O)Nc2ccc(S(=O)(=O)/N=C3\CCCCCN3)cc2)c1` [Decoy783], the Type is listed as “Inactive (Decoy)”. In the case of `CCCOc1ccc([C@@H]2C(C(=O)c3c(C)nc4ccccn34)=C(O)C(=O)N2CCN(CC)CC)cc1OCC` [Decoy759], the Type is given as “Inactive (Decoy)”. In the case of `CCN1C[C@]2(COC)[C@H](O)C[C@H](OC)[C@@]34[C@@H]2[C@@H](OC)[C@@H]([C@@H]13)[C@]1(OC(C)=O)[C@H]2[C@@H](OC(=O)c3ccccc3)[C@](O)(C[C@]24O)[C@@H](OC)[C@@H]1O` [Decoy802], the Type is given as “Inactive (Decoy)”. For `CCOc1ccc(S(=O)(=O)Nc2ccc(C(=O)N/N=C(\C)c3ccc(OC)cc3O)cc2)cc1` [Decoy858], the Type is listed as “Inactive (Decoy)”. In the case of `CCOC(=O)C1=C(C)NC(=O)N[C@H]1c1ccc(OCC(=O)N/N=C/c2cc(C)n(-c3ccc(Cl)c(Cl)c3)c2C)c(OC)c1` [Decoy745], the Type is listed as “Inactive (Decoy)”. For `CCSc1nnc(NC(=O)CSc2n[nH]c(N/N=C/c3ccc(F)cc3)n2)s1` [Decoy803], the Type is given as “Inactive (Decoy)”. For `COc1cccc(/C=N/NC(=O)[C@H](C)Sc2nnc(S[C@H](C)C(=O)N/N=C/c3cccc(OC)c3OC)s2)c1OC` [Decoy736], the Type is given as “Inactive (Decoy)”. In the case of `Cc1cc(NS(=O)(=O)c2ccc(NC(=O)CCCC(=O)Nc3ccc(S(=O)(=O)Nc4cc(C)on4)cc3)cc2)no1` [Decoy746], the Type is listed as “Inactive (Decoy)”. In the case of `CCOC(=O)c1[nH]c(C)c(C(=O)OCC(=O)NCC(=O)Nc2ccc(F)c(F)c2F)c1C` [Decoy747], the Type is given as “Inactive (Decoy)”. In the case of `Nc1ncnc2c1ncn2[C@@H]1O[C@H](CO[P@](=O)(O[C@H](CO)[C@@H](O)[C@H](O)[C@@H](O)C=O)OP(=O)(O)O)[C@@H](O)[C@H]1O` [Decoy946], the Type is listed as “Inactive (Decoy)”. For `Nc1nnc(S(=O)(=O)N[C@]2(C(F)(F)F)C(=O)N=C3C2=C(O)NC(=O)N3Cc2cccnc2)s1` [Decoy794], the Type is given as “Inactive (Decoy)”. In the case of `Cc1ccc(C)c(NC(=O)CCC(=O)N/N=C(/S)NC(=O)c2ccccc2[N+](=O)[O-])c1` [Decoy948], the Type is listed as “Inactive (Decoy)”. For `COc1c([C@@H]2OC[C@@H](OC(C)=O)[C@@H](OC(C)=O)[C@H]2OC(C)=O)c(O)cc2oc(-c3ccc(O[C@H]4O[C@@H](CO)[C@@H](O)[C@@H](O)[C@H]4O)cc3)cc(=O)c12` [Decoy773], the Type is given as “Inactive (Decoy)”. For `COc1cc(/C=N/N=C2\NC(=O)[C@H](CC(=O)O)S2)cc(Br)c1OS(=O)(=O)c1ccc(NC(C)=O)cc1` [Decoy786], the Type is given as “Inactive (Decoy)”. For `COC(=O)c1[nH]c(C)c(C(=O)C2=C(O)C(=O)N(CCN3CCOCC3)[C@@H]2c2cc(OC)c(OC)c(OC)c2)c1C` [Decoy872], the Type is given as “Inactive (Decoy)”. In the case of `CCc1c(C)nc(-n2nc(-c3ccco3)cc2NC(=O)c2cc(OC)c(OC)cc2[N+](=O)[O-])nc1O` [Decoy834], the Type is listed as “Inactive (Decoy)”.

Same assay, conditions: sheet 6QHD_actives_decoys; known STAT3 actives of the retrospective screening set; ref ChEMBL / literature; cited from earlier work
For `O=C(O)CCCNC(=O)[C@@H]1Cc2cccc3c2N1C(=O)[C@@H](NC(=O)/C=C/c1ccc(OP(=O)(O)O)cc1)CC3` [CHEMBL475488], the “Type (known STAT3 active)” value is given as “Active”.

Same assay, conditions: sheet 6QHD_actives_decoys; retrospective screening set for STAT3 SH2 domain (PDB 6QHD); […]; ref DUD-E; cited from earlier work
For `CCOc1ccc(NS(=O)(=O)c2ccc3c(c2)CC(=O)N3)cc1S(=O)(=O)N1CCCC1` [Decoy537], the Type is listed as “Inactive (Decoy)”. In the case of `Cc1ccc(S(=O)(=O)N[C@]2(C(F)(F)F)C(=O)Nc3c2c(=O)nc(O)n3-c2ccccc2)cc1` [Decoy629], the Type is listed as “Inactive (Decoy)”. For `Cc1cc(C(=O)Nc2ccc(S(=O)(=O)Nc3ncccn3)cc2)cc(S(=O)(=O)N(C)C)c1C` [Decoy675], the Type is given as “Inactive (Decoy)”. In the case of `Cc1ccc(S(=O)(=O)NCCCCNS(=O)(=O)c2ccc(C)c([N+](=O)[O-])c2)cc1[N+](=O)[O-]` [Decoy360], the Type is listed as “Inactive (Decoy)”. For `COc1cc(S(=O)(=O)N2CCCCC2)ccc1N/C=C1/C(=O)NC(=O)N(c2ccccc2)C1=O` [Decoy344], the Type is given as “Inactive (Decoy)”.

Same assay, conditions: sheet 6QHD_actives_decoys; retrospective screening set for STAT3 SH2 domain (PDB 6QHD); decoys generated with DUD-E and presumed inactive, not tested; ref DUD-E; cited from earlier work
In the case of `C[C@@H]1O[C@@H](O[C@H]2[C@H](O[C@@H]3CC[C@@H]4C(=CC[C@@H]5[C@@]4(C)C(=O)C[C@]4(C)[C@H]([C@@]6(C)O[C@@H](C(C)(C)O)CC6=O)[C@H](O)C[C@@]54C)C3(C)C)O[C@H](CO)[C@@H](O)[C@@H]2O)[C@H](O)[C@H](O)[C@H]1O` [Decoy471], the Type is listed as “Inactive (Decoy)”. For `CCOC(=O)c1[nH]c(C)c(C(=O)C2=C(O)C(=O)N(CCN(CC)CC)[C@H]2c2ccc(OC)c(OC)c2)c1C` [Decoy455], the Type is listed as “Inactive (Decoy)”. For `NCCCCCCNc1ncnc2c1ncn2[C@@H]1O[C@H](COP(=O)(O)O)[C@@H](OP(=O)(O)O)[C@H]1O` [Decoy505], the Type is given as “Inactive (Decoy)”. In the case of `COc1ccc(S(=O)(=O)N(CC(=O)Nc2ccccc2C(=O)NCc2ccco2)c2ccc(F)cc2)cc1OC` [Decoy480], the Type is listed as “Inactive (Decoy)”. For `COc1cc(/C=N/NC(=O)CC(=O)N/N=C/c2cc(Br)c(O)c(OC)c2)cc(Br)c1O` [Decoy510], the Type is listed as “Inactive (Decoy)”. For `CCOc1ccc([C@@H]2c3c(-c4cc(Cl)c(C)cc4O)n[nH]c3C(=O)N2CCCOC)cc1OCC` [Decoy460], the Type is given as “Inactive (Decoy)”. For `CCSc1ccccc1NC(=O)CSc1n[nH]c(N/N=C/c2cc([N+](=O)[O-])ccc2O)n1` [Decoy446], the Type is given as “Inactive (Decoy)”. In the case of `O=C(O)CCCNC(=O)C(NC(=O)CCSSCCNC(=O)CCCC[C@@H]1SC[C@@H]2NC(=O)N[C@@H]21)C(=O)NCCCC(=O)O` [Decoy546], the Type is listed as “Inactive (Decoy)”. For `C=C1CC[C@H]2[C@](C)(CO[C@H]3O[C@@H](CO[C@H]4O[C@@H](CO)[C@@H](O)[C@H]4O)[C@@H](O)[C@@H](O)[C@H]3O)[C@@H](O)CC[C@]2(C)[C@H]1CC/C(C)=C\CO` [Decoy612], the Type is given as “Inactive (Decoy)”. For `CCOC(=O)c1ccc(N2C(=O)[C@@H](CC(=O)Nc3ccc(OCC)cc3)N(CCc3ccncc3)C2=S)cc1` [Decoy677], the Type is listed as “Inactive (Decoy)”. For `COC(=O)c1ccc2c(=O)n(CCc3ccc(S(N)(=O)=O)cc3)c(SCC(=O)Nc3ccc(C)cc3)nc2c1` [Decoy496], the Type is given as “Inactive (Decoy)”. In the case of `Cc1ccc(S(=O)(=O)NCc2ccco2)cc1C(=O)NNC(=O)c1nn(-c2ccccc2)cc1O` [Decoy610], the Type is listed as “Inactive (Decoy)”. In the case of `COc1ccccc1NS(=O)(=O)c1ccc(O)c(C(=O)OCC(=O)c2ccc3c(c2)NC(=O)CO3)c1` [Decoy538], the Type is given as “Inactive (Decoy)”. In the case of `CCN(CC)S(=O)(=O)c1ccc(NC(=O)CSc2n[nH]c(NN=C3CCCC3)n2)cc1` [Decoy684], the Type is listed as “Inactive (Decoy)”. In the case of `CC[C@@H]1OC(=O)[C@@H](C)[C@@H](O[C@@H]2C[C@@](C)(OC)[C@H](O)[C@H](C)O2)[C@@H](C)[C@@H](O[C@H]2O[C@@H](C)C[C@@H](N(C)C)[C@H]2O)[C@](C)(O)C[C@@H](C)/C(=N\OCOCCOC)[C@@H](C)[C@@H](O)[C@]1(C)O` [Decoy579], the Type is listed as “Inactive (Decoy)”. In the case of `COC(=O)[C@@H]1O[C@H](OCC(=O)[C@@]2(O)CC[C@@H]3[C@H]4CCC5=CC(=O)CC[C@@]5(C)[C@@H]4[C@@H](O)C[C@@]32C)[C@@H](OC(C)=O)[C@H](OC(C)=O)[C@H]1OC(C)=O` [Decoy633], the Type is given as “Inactive (Decoy)”. For `COC(=O)[C@@H]1O[C@H](OC/C(=N/NC(N)=O)[C@H]2CC[C@@H]3[C@@H]4CC[C@@H]5C[C@H](OC(C)=O)CC[C@@]5(C)[C@H]4C(=O)C[C@@]23C)[C@@H](OC(C)=O)[C@H](OC(C)=O)[C@H]1OC(C)=O` [Decoy497], the Type is given as “Inactive (Decoy)”. In the case of `C=C[C@@](C)(CC/C=C(\C)CC/C=C(\C)C[C@H](O)/C=C(\C)C(=O)O)O[C@@H]1O[C@H](CO)[C@@H](O)[C@H](O)[C@H]1O[C@@H]1O[C@H](CO)[C@@H](O)[C@H](O)[C@H]1O` [Decoy688], the Type is listed as “Inactive (Decoy)”. For `CC[C@@H](O)[C@@](C)(O)/C=C(\C)C(=O)[C@H](C)C[C@@](C)(OC)[C@H](O[C@@H]1O[C@H](C)C[C@H](N(C)C)[C@H]1O)[C@@H](C)[C@H](O[C@H]1C[C@@](C)(OC)[C@@H](O)[C@H](C)O1)[C@@H](C)C(=O)O` [Decoy657], the Type is listed as “Inactive (Decoy)”. In the case of `COC(=O)c1sc(NC(=O)c2ccc(C(=O)Nc3sc(C(=O)OC)c(C)c3C(=O)OC)cc2)c(C(=O)OC)c1C` [Decoy394], the Type is given as “Inactive (Decoy)”. For `COc1ccc(C(=O)O[C@H]2[C@@H]3C=CO[C@H](O[C@@H]4O[C@H](COC(C)=O)[C@@H](OC(C)=O)[C@H](OC(C)=O)[C@H]4OC(C)=O)[C@@H]3[C@](O)(COC(C)=O)[C@@H]2O)cc1` [Decoy373], the Type is listed as “Inactive (Decoy)”. For `CCOC(=O)c1ccc(NC(=O)COc2cc(Br)c([C@H]3NC(=S)N=C(C)/C3=C(/O)OC)cc2OC)cc1` [Decoy489], the Type is listed as “Inactive (Decoy)”. In the case of `C=C[C@](C)(CC/C=C(\C)CC/C=C(\C)C[C@H](O)/C=C(\C)C(=O)O)O[C@@H]1O[C@H](CO)[C@@H](O)[C@H](O)[C@H]1O[C@@H]1O[C@H](CO)[C@@H](O)[C@H](O)[C@H]1O` [Decoy689], the Type is listed as “Inactive (Decoy)”. For `C[C@@H](OC(=O)CCC(=O)Nc1ccc(C(=O)OCC(=O)c2cccc([N+](=O)[O-])c2)cc1)C(=O)c1cccc(Cl)c1` [Decoy525], the Type is given as “Inactive (Decoy)”. For `O=C(O)c1ccccc1NS(=O)(=O)c1ccc(NCCCN2CCOCC2)c([N+](=O)[O-])c1` [Decoy387], the Type is listed as “Inactive (Decoy)”. In the case of `CCCCCOc1ccc([C@H]2C(C(=O)c3ccc4c(c3)OCCO4)=C(O)C(=O)N2CCCN2CCOCC2)cc1OCC` [Decoy434], the Type is listed as “Inactive (Decoy)”. In the case of `CC(C)CNC(=O)c1ccc2c(=O)n(C(C)C)c3nn(CC(=O)Nc4ccc(F)cc4)c(=O)n3c2c1` [Decoy378], the Type is listed as “Inactive (Decoy)”. For `CCOC(=O)c1c(C)oc(NC(=O)[C@@H](CC)n2c(N)nnc2SCC(=O)OC)c1C(=O)OCC` [Decoy617], the Type is listed as “Inactive (Decoy)”.
